These results are taken from ChEMBL document CHEMBL1201862, “PubChem BioAssay data set” (2004).

Some test systems named below: HOP-92; UO-31; SN12C; BT-549; SR; SF-539; SK-OV-3; RPMI-8226; CAKI-1; NCI-H522; NCI-H23; SK-MEL-28; RXF 393; HCC 2998; 786-0; NCI/ADR-RES; SK-MEL-5; Malme-3M; MCF7.
What all share (experiment): DTP human tumour cell line panel, 48 h

The structures appear in SMILES notation.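 Method: 48-hour compound exposure of cells in 96-well plates, five concentrations, linear interpolation of endpoints. GI50: concentration for 50% inhibition of growth.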 Activity calls are given as the source filed them. Rule as the data show it: active = GI50 up to about 1.1 µM and inactive = higher. A value given as a limit tells only on which side of the number the result lay.

Broadly, the GI50 is the concentration giving 50% growth inhibition. Take `CN(C)c1ccc(/N=N\c2cccc3ccoc23)cc1`: the GI50 was 70.5 µM (inactive) with HOP-92; 6.46 µM (inactive) in the experiment on UO-31; > 75 µM (inactive) in the experiment with SN12C; > 95.7 µM (inactive) with BT-549; 23.3 µM (inactive) in the experiment with SR; > 100 µM (inactive) with SF-539. Further, the GI50 with SK-OV-3 is > 100 µM (inactive); in the experiment with RPMI-8226, 52.2 µM (inactive); with CAKI-1, > 62.4 µM (inactive); in the experiment on NCI-H522, 35.4 µM (inactive); in the experiment with NCI-H23 it was > 68.7 µM (inactive); in the experiment on SK-MEL-28, > 100 µM (inactive). The GI50 in the experiment with RXF 393 was > 80.9 µM (inactive); in the experiment on HCC 2998, 60.8 µM (inactive); with 786-0 it was > 100 µM (inactive); in the experiment with NCI/ADR-RES it was 43.1 µM (inactive); with SK-MEL-5 it was 43.4 µM (inactive); in the experiment with Malme-3M, > 100 µM (inactive).

`CC(C)(C)C1=NN=C2c3ccccc3C(=O)C21` (centres undefined): the GI50 in the experiment with HOP-92 was 15.5 µM (inactive); in the experiment on UO-31 it was 4.78 µM (inactive); with MCF7 it was 51.1 µM (inactive); with SN12C, 42.6 µM (inactive); in the experiment with SR, 24.8 µM (inactive); with SF-539 it was 38.4 µM (inactive). For the same compound, the GI50 is 32.1 µM (inactive) with RPMI-8226; 26.4 µM (inactive) in the experiment on CAKI-1; 35.4 µM (inactive) in the experiment on NCI-H522; 49 µM (inactive) with NCI-H23; 55.8 µM (inactive) with SK-MEL-28; 81.3 µM (inactive) with RXF 393. Besides, the GI50 in the experiment on HCC 2998 was 4.6 µM (inactive); in the experiment with 786-0, 99.5 µM (inactive); in the experiment with NCI/ADR-RES, 83.9 µM (inactive); in the experiment on SK-MEL-5, 23 µM (inactive); in the experiment on Malme-3M, 36.2 µM (inactive).

`CC(C)(Br)C(Br)CCC1(C(Br)CBr)CO1` (centres undefined): the GI50 in the experiment with HOP-92, in the experiment on UO-31, in the experiment with MCF7, in the experiment with SN12C, in the experiment with BT-549 and with SR was > 10 µM (inactive) each time. Further, the GI50 in the experiment with SF-539, in the experiment with SK-OV-3, with RPMI-8226, in the experiment with CAKI-1, in the experiment with NCI-H522 and with NCI-H23 was > 10 µM (inactive) throughout. In addition, the GI50 with SK-MEL-28, in the experiment with RXF 393, in the experiment with HCC 2998, with 786-0 and with SK-MEL-5 was > 10 µM (inactive) in each case.

In the case of `CC(=O)OC[C@@]12CC[C@H]3C(C)(C)CCC[C@]3(C)[C@H]1C[C@@H](C1=CC(=O)O[C@H]1O)O2`, the GI50 with UO-31 is 2.1 µM (inactive); with MCF7 it was 1.58 µM (inactive); with SN12C it was 3.55 µM (inactive); in the experiment on SR, 0.625 µM (active); in the experiment on SF-539, 2.39 µM (inactive); in the experiment with RPMI-8226 it was 2.15 µM (inactive). The GI50 is 2.64 µM (inactive) in the experiment on CAKI-1; 1.62 µM (inactive) in the experiment with NCI-H522; 2.04 µM (inactive) with NCI-H23; 1.77 µM (inactive) in the experiment on SK-MEL-28; 1.61 µM (inactive) with HCC 2998; 1.8 µM (inactive) in the experiment on 786-0. Also, the GI50 was 4.5 µM (inactive) in the experiment on NCI/ADR-RES and 2.8 µM (inactive) in the experiment on SK-MEL-5.

Take `CC1=CCCC(OC(N)=O)C1` (centres undefined): the GI50 in the experiment with HOP-92 is 46.2 µM (inactive); in the experiment with UO-31 it was > 100 µM (inactive); with SN12C, > 100 µM (inactive); in the experiment on SF-539, > 100 µM (inactive); in the experiment with SK-OV-3, > 100 µM (inactive); in the experiment on RPMI-8226 it was > 100 µM (inactive). In addition, the GI50 in the experiment with CAKI-1, in the experiment on NCI-H23, in the experiment with RXF 393, with HCC 2998, in the experiment with 786-0 and with SK-MEL-5 was > 100 µM (inactive) each time. For the same compound, the GI50 in the experiment on Malme-3M was > 100 µM (inactive).

As for `CCOC(=O)C[C@@]12CCCN[C@]1(C)CCc1ccccc12`, the GI50 in the experiment with HOP-92 is 97.1 µM (inactive); in the experiment on UO-31, > 100 µM (inactive); in the experiment on SN12C it was > 100 µM (inactive); in the experiment with SR it was > 100 µM (inactive); with SF-539, > 100 µM (inactive); in the experiment on SK-OV-3 it was > 100 µM (inactive). For the same compound, the GI50 in the experiment with RPMI-8226, in the experiment on CAKI-1, in the experiment with NCI-H522, in the experiment on NCI-H23, with SK-MEL-28 and in the experiment on RXF 393 was > 100 µM (inactive) each time. The GI50 in the experiment with HCC 2998, with 786-0, in the experiment on SK-MEL-5 and in the experiment on Malme-3M was > 100 µM (inactive) each time.

Consider `N#Cc1cc(C#N)c(Cl)nc1N`, for which the GI50 in the experiment on HOP-92 is > 10 µM (inactive); in the experiment with UO-31, 0.0323 µM (active); with MCF7, > 10 µM (inactive); in the experiment with SN12C, > 10 µM (inactive); in the experiment with SR, > 10 µM (inactive); in the experiment on SF-539, > 10 µM (inactive). Further, the GI50 in the experiment on SK-OV-3, in the experiment with RPMI-8226, with NCI-H23, in the experiment with SK-MEL-28, in the experiment with RXF 393 and in the experiment with HCC 2998 was > 10 µM (inactive) each time. Besides, the GI50 with 786-0, with NCI/ADR-RES, in the experiment on SK-MEL-5 and in the experiment on Malme-3M was > 10 µM (inactive) in each case.

Turning to `O=C(O)CNS(=O)(=O)c1ccc(NC(=O)c2ccccc2[N+](=O)[O-])cc1`, the GI50 in the experiment on HOP-92, with UO-31, with SN12C, in the experiment with SF-539, in the experiment with SK-OV-3 and with RPMI-8226 was > 100 µM (inactive) throughout. The GI50 in the experiment on CAKI-1, in the experiment with NCI-H522, in the experiment on NCI-H23, in the experiment on SK-MEL-28, in the experiment on RXF 393 and with 786-0 was > 100 µM (inactive) throughout. The GI50 in the experiment with SK-MEL-5 and in the experiment with Malme-3M was > 100 µM (inactive) in each case.

As for `CO/C(N)=C(C#N)/N=C/c1ccc2ccccc2c1`, the GI50 is 34.5 µM (inactive) with HOP-92; 58.2 µM (inactive) with UO-31; > 100 µM (inactive) in the experiment with SN12C; 18.5 µM (inactive) in the experiment on BT-549; 27.6 µM (inactive) in the experiment on SR; 82.6 µM (inactive) in the experiment on SK-OV-3. Besides, the GI50 in the experiment on RPMI-8226 was 17.1 µM (inactive); with CAKI-1 it was 39.1 µM (inactive); with NCI-H522, > 100 µM (inactive); in the experiment with NCI-H23, > 100 µM (inactive); in the experiment with SK-MEL-28 it was > 100 µM (inactive); in the experiment with RXF 393, > 100 µM (inactive). The GI50 in the experiment with 786-0 is 78.5 µM (inactive); in the experiment on NCI/ADR-RES, 13 µM (inactive); in the experiment with SK-MEL-5, 13 µM (inactive); with Malme-3M, > 100 µM (inactive).

Consider `O=c1[nH]c(=O)c2c3n(cc2[nH]1)CCCCC3`, for which the GI50 with HOP-92, in the experiment on UO-31, in the experiment on MCF7, with SN12C, in the experiment on SR and in the experiment on SK-OV-3 was > 100 µM (inactive) throughout. The GI50 with RPMI-8226, with CAKI-1, in the experiment on NCI-H522, in the experiment on NCI-H23, with SK-MEL-28 and in the experiment on RXF 393 was > 100 µM (inactive) each time. Also, the GI50 in the experiment with HCC 2998, in the experiment with 786-0, in the experiment with NCI/ADR-RES, in the experiment with SK-MEL-5 and with Malme-3M was > 100 µM (inactive) in each case.

Regarding `CCCC(=O)/C=C/S/C=C/C(=O)CCC`, the GI50 in the experiment on UO-31 is 4.13 µM (inactive); in the experiment on MCF7, 28.2 µM (inactive); with SN12C, 13.2 µM (inactive); with SF-539, 10.7 µM (inactive); in the experiment with SK-OV-3, 34.4 µM (inactive); in the experiment on CAKI-1, 2.86 µM (inactive). The GI50 in the experiment with NCI-H522 is 1.71 µM (inactive); in the experiment on NCI-H23, 2.84 µM (inactive); with SK-MEL-28 it was 3.96 µM (inactive); with RXF 393, 4.9 µM (inactive); in the experiment with 786-0 it was 2.1 µM (inactive); in the experiment with NCI/ADR-RES it was 3.18 µM (inactive). Moreover, the GI50 with SK-MEL-5 is 4.26 µM (inactive); in the experiment on Malme-3M, 7.28 µM (inactive).

Regarding `O=C1CC(c2ccccc2)n2cccc21` (centres undefined), the GI50 with HOP-92 is > 100 µM (inactive); with UO-31, 67.6 µM (inactive); in the experiment with MCF7, > 100 µM (inactive); in the experiment on SN12C, > 100 µM (inactive); in the experiment with SR it was > 100 µM (inactive); in the experiment on SF-539, > 100 µM (inactive). Moreover, the GI50 in the experiment with SK-OV-3, in the experiment on RPMI-8226, in the experiment on CAKI-1, in the experiment with NCI-H522, with NCI-H23 and in the experiment with SK-MEL-28 was > 100 µM (inactive) throughout. For the same compound, the GI50 in the experiment on RXF 393, in the experiment with HCC 2998, in the experiment with 786-0, with NCI/ADR-RES and in the experiment on SK-MEL-5 was > 100 µM (inactive) in each case.

Take `CN(C)CCNc1ncnc2nc(-c3ccccc3)c(-c3ccccc3)nc12`: the GI50 with UO-31 was > 100 µM (inactive); in the experiment on MCF7, 57.5 µM (inactive); in the experiment with SN12C, > 100 µM (inactive); in the experiment on BT-549, > 100 µM (inactive); with SF-539, > 100 µM (inactive); in the experiment with SK-OV-3, > 100 µM (inactive). The GI50 in the experiment on CAKI-1, with NCI-H522, in the experiment with NCI-H23, in the experiment with SK-MEL-28, in the experiment with RXF 393 and with 786-0 was > 100 µM (inactive) throughout. The GI50 in the experiment with NCI/ADR-RES, in the experiment on SK-MEL-5 and with Malme-3M was > 100 µM (inactive) in each case.
